Experimental data reported in patent publication US9827265B1, “Method for attenuating free radical formation resulting from a bodily insult” (MD Scientific, LLC, priority 2012, dated 2017).
Like-named read-outs stand apart in the source and are kept apart here.

[1] = high risk subjects with injection of iodinated contrast in the cardiac arteries, total 1.96 mEq/kg, 40% prior to and 60% during and after the contrast, sodium concentration 154 mEq/L, death primarily from cardiac failure

| SMILES | incidence of death [1] [%] | incidence of death (subjects with other types of iodinated contrast injection (other non-cardiac arteries), compared between both study cohorts) |
| --- | --- | --- |
| [Cl-].[Na+] [sodium chloride (saline), sodium chloride] | 10.1 | – |
| O=C([O-])O.[Na+] [sodium bicarbonate solution, sodium bicarbonate] | 3.2 | same incidence of death in both study cohorts |
